A short description of assay [1]: Inhibition of Mycobacterium tuberculosis H37Rv cytochrome bd oxidase with ATP synthase overexpression inverted membrane vesicles. The class given is cell membranes, Membrane vesicle.
For assay [2], the system named is Mycobacterium tuberculosis. Nature of the assay: Antimycobacterial activity against clinical isolate multi drug resistant Mycobacterium tuberculosis H37Rv assessed as inhibition of bacterial growth. The format is functional, organism-based.
Assay [3] deals with Mycobacterium tuberculosis. Nature of the assay: Antimycobacterial activity against Mycobacterium tuberculosis Rv1305 harbouring atpE gene. The format is functional.

What is called IC50 is the concentration that inhibits the measured activity by half. For orientation: MIC means the lowest concentration that inhibits growth of the organism.

Values after ≈ are worked out from the molar mass of the structure shown.

With `c1ccc(CCNc2ncnc3ccccc23)cc1`, the midpoint of inhibition in assay [1], the IC50, lay at 27 µM.

On to `CC(C)(C)c1ccc(CCNc2ncnc3ccsc23)cc1`, for which the IC50 in assay [2] is 18.9 µM.

In assay [3], `NC(=O)NC(=O)c1nc(-c2cc3ccccc3o2)c(N)nc1N` gave an MIC of 5 µM (≈ 1.56 µg/mL).

For the molecule `CCc1nc2ccc(Cl)cn2c1C(=O)NCc1ccc(N2CCC(c3ccc(OC(F)(F)F)cc3)CC2)cc1` [TELACEBEC], in assay [2], the MIC is not above 1 µM.
